{
  "source": "patent US20030235646A1",
  "about": "“Method for improving quality of meat by supplementing pig diets and concentrates used therefor” (Lonza Inc., priority 2002, published 2003)",
  "key": {"finishing pigs": {"tested_on": "finishing pigs", "assay": "Carcass characteristics of finishing pigs fed Carnitine and Paylean (Example 2)", "type": "in vivo", "conditions": "Paylean 9 g/ton, Carnitine 0 ppm", "procedure": "Because of the dramatic and potentially economically important changes in pork quality observed in the data of Example 1, a second trial was conducted to confirm these observations. This experiment was conducted in the same facility as Example 1 and used the same diet in Table 1. The primary difference was that the 4.5 g/ton ractopamine level was not included; i.e., only 0 or 9 grams/ton ractopamine was combined with either 0, 25, or 50 ppm of added L-camitine."}, "[1]": {"tested_on": "finishing pigs (longissimus muscle)", "assay": "Carcass quality measures of finishing pigs fed Carnitine and Paylean (Example 1)", "type": "in vivo", "design": "key to L*: lightness: 100 = perfect white, 0 = absolute black; key to Firmness: score 1 = soft and watery, 5 = firm and dry; Hue angle / Drip loss: unit not given here", "conditions": "for Drip loss / Hue angle / L* / PH 45 m postmortem / PH 24 h postmortem / Saturation index / a* / a*/b* / b* / Temperature / Firmness / Marbling / Visual color: Carnitine 0 ppm; for Temperature: 45 minutes postmortem; for Firmness / Marbling / Visual color: score 1 to 5", "from_the_text": "Color is qualitatively measured using Minolta color-spectrometry, a process which evaluates the Hunter L* and a* values of the meat color, as well as by the saturation index and the Hue Angle value. Hunter L* value measures the lightness of the meat color and varies from 100 for perfect white to 0 for absolute black. Acceptable values for pork range from 35 to 55, with 40-45 values being most preferred by consumers.\nThe other Hunter value is related to the hue of the color of the meat, with increasing a* values indicating redness and decreasing a values indicating greenness. High quality pork has Hunter a* values which range from 7.5 to 12, and consumers prefer meat with 9-9.5 scores.\nHue Angle value measures the discoloration of meat. Increasing values indicate increasing discoloration of meat. Decreasing values indicate reduction of the discoloration. Acceptable pork Hue Angle values range from 48 to 54, and the preferred values range from 48-52.\nThe final spectrographic measurement is the saturation index, which is related to the strength of the color of the meat. Acceptable pork saturation index values range from 12 to 15.5, with values from 13-14.5 being preferred. The color of the meat is of particular importance in some export markets, such as Japan, Korea, Asia and South America. […] Acceptable marbling score ranges from 1 to 3, with 2.5 being preferred.\nDrip loss is a measurement of the ability of the sample to retain water. In this procedure, a standardized amount of lean pork muscle, i.e., a cubic centimeter, is weighed, then suspended in an airtight container from a hook for 24 hours. The difference in weight from beginning to end of the 24 hour period represents the amount of water loss or purge. The greater the amount of purge loss, the poorer the pork quality. Changes in the pH of pork associated with postmortem metabolism affect the isoelectric point of the various amino acids in protein, and thus can affect the protein's ability to bind water. Pork with high drip loss is termed in the industry as “exudative” which is undesirable to both meat producers and consumers.\nThe firmness of the meat is measured visually on the score from 1 to 5, 1 being soft and watery, 5 being firm and dry. The acceptable score is 2-4, and the preferred score is 2.5-3.5. This characteristic of pork has become important due to recent attempts to genetically improve the leanness of the meat. The desired leanness has been accompanied by a negative impact on the meat firmness. As a result, approximately 30% of the meat now going through packing houses has been categorized as PSE (Pale Soft Exudative meat) and is unacceptable to the consumer, thus causing economic loss to the meat producer according to the National Meat Producers Council. Thus, there is an urgent need in the art for means of improving the quality (firmness, color, marbling) and carcass characteristics of the pork.\nOne hundred twenty-six gilts (initially 73.6 lb, PIC C22×L326) were allotted by weight and ancestry in a randomized complete block design to each of the nine experimental treatments arranged in a 3×3 factorial arrangement. There were two pigs/pen and seven replicates/treatment. Pigs were housed in an environmentally controlled building with 4-ft×4-ft slatted-floor pens.\nPigs were fed a corn-soybean meal diet composed of the following:\nL-carnitine (0, 25, or 50 ppm) was added to the diet from 73.6 lb until slaughter (approximately 240 lb). Paylean (a registered trademark of Eli Lilly Company for ractopamine) treatments (0, 4.5, or 9 g/ton) were fed for the last four weeks of the experiment. The basal diet was formulated to contain 1.10% lysine from 73.6 to 164 lb, and 1.00% lysine from 164 lb until the end of the experiment. These quantities of Paylean are equivalent to 0, 5, and 10 ppm of ractopamine in the feed, respectively. […]"}},
  "data": [
    {"smiles": "CC(CCc1ccc(O)cc1)NCC(O)c1ccc(O)cc1", "note": "(stereo not drawn) [Paylean, ractopamine, reference compound]", "values": [
      {"measurement": "Drip loss", "setting": "finishing pigs", "value": 4.85, "unit": "%"},
      {"measurement": "Hue angle", "setting": "finishing pigs", "value": 65.14},
      {"measurement": "L*", "setting": "finishing pigs", "value": 59.72},
      {"measurement": "Saturation index", "setting": "finishing pigs", "value": 18.74},
      {"measurement": "Temperature 5 min", "setting": "finishing pigs", "value": 39.60, "unit": "°C"},
      {"measurement": "Temperature 15 min", "setting": "finishing pigs", "value": 40.42, "unit": "°C"},
      {"measurement": "Temperature 45 min", "setting": "finishing pigs", "value": 39.43, "unit": "°C"},
      {"measurement": "Temperature 1.5 h", "setting": "finishing pigs", "value": 35.99, "unit": "°C"},
      {"measurement": "Temperature 3 h", "setting": "finishing pigs", "value": 24.38, "unit": "°C"},
      {"measurement": "Temperature 6 h", "setting": "finishing pigs", "value": 12.04, "unit": "°C"},
      {"measurement": "a*", "setting": "finishing pigs", "value": 7.94},
      {"measurement": "a*/b*", "setting": "finishing pigs", "value": 0.46},
      {"measurement": "b*", "setting": "finishing pigs", "value": 16.97},
      {"measurement": "pH 0 min", "setting": "finishing pigs", "value": 7.16},
      {"measurement": "pH 5 min", "setting": "finishing pigs", "value": 6.79},
      {"measurement": "pH 15 min", "setting": "finishing pigs", "value": 6.59},
      {"measurement": "pH 45 min", "setting": "finishing pigs", "value": 6.14},
      {"measurement": "pH 1.5 h", "setting": "finishing pigs", "value": 5.89},
      {"measurement": "pH 3 h", "setting": "finishing pigs", "value": 5.59},
      {"measurement": "pH 6 h", "setting": "finishing pigs", "value": 5.61},
      {"measurement": "pH 24 h", "setting": "finishing pigs", "value": 5.58},
      {"measurement": "Firmness", "setting": "finishing pigs; score 1 to 5", "value": 1.99},
      {"measurement": "Marbling", "setting": "finishing pigs; score 1 to 5", "value": 1.85},
      {"measurement": "Visual cobra", "setting": "finishing pigs; score 1 to 5", "value": 2.75},
      {"measurement": "Drip loss", "setting": "[1]; Paylean 4.5 g/ton", "value": 3.13},
      {"measurement": "Hue angle", "setting": "[1]; Paylean 4.5 g/ton", "value": 69.95},
      {"measurement": "L*", "setting": "[1]; Paylean 4.5 g/ton", "value": 60.78},
      {"measurement": "PH 45 m postmortem", "setting": "[1]; Paylean 4.5 g/ton", "value": 6.41},
      {"measurement": "PH 24 h postmortem", "setting": "[1]; Paylean 4.5 g/ton", "value": 5.79},
      {"measurement": "Saturation index", "setting": "[1]; Paylean 4.5 g/ton", "value": 16.76},
      {"measurement": "a*", "setting": "[1]; Paylean 4.5 g/ton", "value": 5.78},
      {"measurement": "a*/b*", "setting": "[1]; Paylean 4.5 g/ton", "value": 0.37},
      {"measurement": "b*", "setting": "[1]; Paylean 4.5 g/ton", "value": 15.69},
      {"measurement": "Temperature", "setting": "[1]; Paylean 4.5 g/ton", "value": 34.39, "unit": "°C"},
      {"measurement": "Firmness", "setting": "[1]; Paylean 4.5 g/ton", "value": 1.79},
      {"measurement": "Marbling", "setting": "[1]; Paylean 4.5 g/ton", "value": 1.35},
      {"measurement": "Visual color", "setting": "[1]; Paylean 4.5 g/ton", "value": 2.57},
      {"measurement": "Drip loss", "setting": "[1]; Paylean 9 g/ton", "value": 3.68},
      {"measurement": "Hue angle", "setting": "[1]; Paylean 9 g/ton", "value": 68.65},
      {"measurement": "L*", "setting": "[1]; Paylean 9 g/ton", "value": 61.53},
      {"measurement": "PH 45 m postmortem", "setting": "[1]; Paylean 9 g/ton", "value": 6.33},
      {"measurement": "PH 24 h postmortem", "setting": "[1]; Paylean 9 g/ton", "value": 5.71},
      {"measurement": "Saturation index", "setting": "[1]; Paylean 9 g/ton", "value": 17.12},
      {"measurement": "a*", "setting": "[1]; Paylean 9 g/ton", "value": 6.30},
      {"measurement": "a*/b*", "setting": "[1]; Paylean 9 g/ton", "value": 0.39},
      {"measurement": "b*", "setting": "[1]; Paylean 9 g/ton", "value": 15.90},
      {"measurement": "Temperature", "setting": "[1]; Paylean 9 g/ton", "value": 35.72, "unit": "°C"},
      {"measurement": "Firmness", "setting": "[1]; Paylean 9 g/ton", "value": 1.79},
      {"measurement": "Marbling", "setting": "[1]; Paylean 9 g/ton", "value": 1.64},
      {"measurement": "Visual color", "setting": "[1]; Paylean 9 g/ton", "value": 2.57},
      {"measurement": "Twenty-four hour pH", "setting": "[1]; with increasing levels of Paylean, quadratic, P<0.06, highest at 4.5 g/ton", "value": "increased and then decreased"}
    ]}
  ]
}
